The text below walks through data of patent US20250206757A1 (GASHERBRUM BIO, INC., priority 2022, published 2025).

Molecules are shown by their SMILES.

The target of this assay is GLP-1 Receptor (Homo sapiens, UniProt P43220). The assay is described as follows: GLP-1R agonist cAMP stimulation assay (HEK293/GLP1R/CRE-LUC cells, HTRF cAMP dynamic 2 kit). It is filed as cell-based. The settings on record: HEK293/CRE-Luc cell line stably expressing the GLP-1 Receptor; 30 min incubation at 37° C. The procedure, abridged: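 HEK293 cells stably expressing GLP-1R with CRE-Luc, 1000 cells/well in DPBS with 0.5 mM IBMX and 0.10% BSA, exposed to half-log compound dilutions for 30 min at 37 °C. cAMP measured by HTRF (665/615 nm) after 1 h at room temperature.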
Sequence of GLP-1 Receptor (P43220 24-463): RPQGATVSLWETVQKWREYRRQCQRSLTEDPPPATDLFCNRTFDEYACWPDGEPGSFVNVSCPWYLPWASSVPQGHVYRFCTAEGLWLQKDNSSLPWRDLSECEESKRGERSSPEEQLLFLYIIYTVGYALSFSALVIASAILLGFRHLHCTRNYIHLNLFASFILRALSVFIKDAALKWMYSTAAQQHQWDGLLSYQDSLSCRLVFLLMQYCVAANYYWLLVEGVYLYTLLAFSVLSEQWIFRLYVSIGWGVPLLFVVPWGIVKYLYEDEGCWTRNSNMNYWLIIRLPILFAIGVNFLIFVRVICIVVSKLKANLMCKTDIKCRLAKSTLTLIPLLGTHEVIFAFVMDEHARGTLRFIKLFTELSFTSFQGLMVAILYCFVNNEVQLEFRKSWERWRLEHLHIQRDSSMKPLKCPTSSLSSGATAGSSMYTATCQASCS
(In general: Time-resolved FRET reads energy transfer from a long-lived donor to a nearby acceptor.)
As a reminder, the EC50 is the midpoint of the concentration-response curve. Low readings indicate greater potency, high ones weaker potency. In the case of `Fc1cc(Cl)ccc1COc1nc2c(cc1C(F)(F)F)CCN(Cc1nc3sc(-c4nnc(C(F)(F)F)[nH]4)cc3n1C[C@@H]1CCO1)C2` [Compound 59, 2-[(4-chloro-2-fluorophenyl)methoxy]-7-[(1-{[(2S)-oxetan-2-yl]methyl}-5-[5-(trifluoromethyl)-4H-1,2,4-triazol-3-yl]-1H-thieno[2,3-d]imidazol-2-yl)methyl]-3-(trifluoromethyl)-5,6,7,8-tetrahydro-1,7-naphthyridine], the concentration for a half-maximal effect (EC50) is less than 1 nM.
The figure for `Cc1nnc(-c2cc3c(nc(CN4CCc5cc(C(F)(F)F)c(OCc6ccc(Cl)cc6F)nc5C4)n3C[C@@H]3CCO3)s2)[nH]1` [Compound 60, 2-[(4-chloro-2-fluorophenyl)methoxy]-7-{[5-(5-methyl-4H-1,2,4-triazol-3-yl)-1-{[(2S)-oxetan-2-yl]methyl}-1H-thieno[2,3-d]imidazol-2-yl]methyl}-3-(trifluoromethyl)-5,6,7,8-tetrahydro-1,7-naphthyridine] is 1 to 300 nM; for `Cc1nnc(-c2cc3nc(CN4CCc5cc(C(F)(F)F)c(OCc6ccc(Cl)cc6)nc5C4)n(C[C@@H]4CCO4)c3cn2)[nH]1` [Compound 61, 2-[(4-chlorophenyl)methoxy]-7-{[6-(5-methyl-4H-1,2,4-triazol-3-yl)-3-{1[(2S)-oxetan-2-yl]methyl}-3H-imidazo[4,5-c]pyridin-2-yl]methyl}-3-(trifluoromethyl)-5,6,7,8-tetrahydro-1,7-naphthyridine] it is less than 1 nM.
For `Cc1nnc(-c2cc3nc(CN4CCc5cc(C(F)(F)F)c(OCc6ccc(Cl)cc6F)nc5C4)n(C[C@@H]4CCO4)c3cn2)[nH]1` [Compound 62, 2-[(4-chloro-2-fluorophenyl)methoxy]-7-{[6-(5-methyl-4H-1,2,4-triazol-3-yl)-3-{[(2S)-oxetan-2-yl]methyl}-3H-imidazo[4,5-c]pyridin-2-yl]methyl}-3-(trifluoromethyl)-5,6,7,8-tetrahydro-1,7-naphthyridine], the EC50 is less than 1 nM.
The figure for `Cc1nnc(-c2cc3nc(CN4CCc5cc(C(F)(F)F)c(OCc6c(F)cc(Cl)cc6F)nc5C4)n(C[C@@H]4CCO4)c3cn2)[nH]1` [Compound 63, 2-[(4-chloro-2,6-difluorophenyl)methoxy]-7-{[6-(5-methyl-4H-1,2,4-triazol-3-yl)-3-{[(2S)-oxetan-2-yl]methyl}-3H-imidazo[4,5-c]pyridin-2-yl]methyl}-3-(trifluoromethyl)-5,6,7,8-tetrahydro-1,7-naphthyridine] is less than 1 nM; for `FC(F)(F)c1cc2c(nc1OCc1ccc(Cl)cc1)CN(Cc1nc3cc(-c4nnc[nH]4)ncc3n1C[C@@H]1CCO1)CC2` [Compound 64, 2-[(4-chlorophenyl)methoxy]-7-[(3-{[(2S)-oxetan-2-yl]methyl}-6-(4H-1,2,4-triazol-3-yl)-3H-imidazo[4,5-c]pyridin-2-yl)methyl]-3-(trifluoromethyl)-5,6,7,8-tetrahydro-1,7-naphthyridine] it is 1 to 300 nM; for `Fc1cc(Cl)ccc1COc1nc2c(cc1C(F)(F)F)CCN(Cc1nc3cc(-c4nnc(C5CC5)[nH]4)ncc3n1C[C@@H]1CCO1)C2` [Compound 65, 2-[(4-chloro-2-fluorophenyl)methoxy]-7-{[6-(5-cyclopropyl-4H-1,2,4-triazol-3-yl)-3-{1[(2S)-oxetan-2-yl]methyl}-3H-imidazo[4,5-c]pyridin-2-yl]methyl}-3-(trifluoromethyl)-5,6,7,8-tetrahydro-1,7-naphthyridine] it is less than 1 nM.
For `CC(F)(F)c1nnc(-c2cc3nc(CN4CCc5cc(C(F)(F)F)c(OCc6ccc(Cl)cc6F)nc5C4)n(C[C@@H]4CCO4)c3cn2)[nH]1` [Compound 66, 2-[(4-chloro-2-fluorophenyl)methoxy]-7-({6-[5-(1,1-difluoroethyl)-4H-1,2,4-triazol-3-yl]-3-{[(2S)-oxetan-2-yl]methyl}-3H-imidazo[4,5-c]pyridin-2-yl}methyl)-3-(trifluoromethyl)-5,6,7,8-tetrahydro-1,7-naphthyridine], the EC50 is less than 1 nM.
The result for `Cc1nnc(-c2cnc3c(c2)nc(CN2CCc4cc(C(F)(F)F)c(OCc5ccc(Cl)cc5F)nc4C2)n3C[C@@H]2CCO2)[nH]1` [Compound 67, 2-[(4-chloro-2-fluorophenyl)methoxy]-7-{[6-(5-methyl-4H-1,2,4-triazol-3-yl)-3-{[(2S)-oxetan-2-yl]methyl}-3H-imidazo[4,5-b]pyridin-2-yl]methyl}-3-(trifluoromethyl)-5,6,7,8-tetrahydro-1,7-naphthyridine] reads 1 to 300 nM; that for `Cc1nnc(-c2ccc3c(nc(CN4CCc5cc(C(F)(F)F)c(OCc6ccc(Cl)cc6)nc5C4)n3C[C@@H]3CCO3)c2F)[nH]1` [Compound 68, 2-[(4-chlorophenyl)methoxy]-7-{[4-fluoro-5-(5-methyl-4H-1,2,4-triazol-3-yl)-1-{[(2S)-oxetan-2-yl]methyl}-1H-1,3-benzodiazol-2-yl]methyl}-3-(trifluoromethyl)-5,6,7,8-tetrahydro-1,7-naphthyridine], less than 1 nM; that for `N#Cc1cc2c(nc1OCc1c(F)cc(Cl)cc1F)CN(Cc1nc3cc(-c4nnc(C(F)F)[nH]4)ncc3n1C[C@@H]1CCO1)CC2` [Compound 69, 2-[(4-chloro-2,6-difluorophenyl)methoxy]-7-({6-[5-(difluoromethyl)-4H-1,2,4-triazol-3-yl]-3-{[(2S)-oxetan-2-yl]methyl}-3H-imidazo[4,5-c]pyridin-2-yl}methyl)-5,6,7,8-tetrahydro-1,7-naphthyridine-3-carbonitrile], less than 1 nM.
The figure for `N#Cc1cc2c(nc1OCc1c(F)cc(Cl)cc1F)CN(Cc1nc3cc(-c4noc(=O)[nH]4)ccc3n1C[C@@H]1CCO1)CC2` [Compound 70, 2-[(4-chloro-2,6-difluorophenyl)methoxy]-7-[(1-{[(2S)-oxetan-2-yl]methyl}-5-(5-oxo-4,5-dihydro-1,2,4-oxadiazol-3-yl)-1H-1,3-benzodiazol-2-yl)methyl]-5,6,7,8-tetrahydro-1,7-naphthyridine-3-carbonitrile] is less than 1 nM; for `N#Cc1cc2c(nc1OCc1c(F)cc(Cl)cc1F)CN(Cc1nc3cc(-c4nnc(C(F)(F)F)[nH]4)ncc3n1C[C@@H]1CCO1)CC2` [Compound 71, 2-[(4-chloro-2,6-difluorophenyl)methoxy]-7-[(3-{[(2S)-oxetan-2-yl]methyl}-6-[5-(trifluoromethyl)-4H-1,2,4-triazol-3-yl]-3H-imidazo[4,5-c]pyridin-2-yl)methyl]-5,6,7,8-tetrahydro-1,7-naphthyridine-3-carbonitrile] it is less than 1 nM.
In turn, `Fc1cc(Cl)ccc1COc1nc2c(cc1C(F)F)CCN(Cc1nc3cc(-c4nnc(C(F)(F)F)[nH]4)ncc3n1C[C@@H]1CCO1)C2` [Compound 72, 2-[(4-chloro-2-fluorophenyl)methoxy]-3-(difluoromethyl)-7-[(3-{[(2S)-oxetan-2-yl]methyl}-6-[5-(trifluoromethyl)-4H-1,2,4-triazol-3-yl]-3H-imidazo[4,5-c]pyridin-2-yl)methyl]-5,6,7,8-tetrahydro-1,7-naphthyridine] yielded an EC50 of less than 1 nM.
The result for `FC(F)c1ccc(COc2nc3c(cc2C(F)(F)F)CCN(Cc2nc4cc(-c5nnc(C(F)(F)F)[nH]5)ncc4n2C[C@@H]2CCO2)C3)cc1` [Compound 73, 2-{[4-(difluoromethyl)phenyl]methoxy}-7-[(3-{[(2S)-oxetan-2-yl]methyl}-6-[5-(trifluoromethyl)-4H-1,2,4-triazol-3-yl]-3H-imidazo[4,5-c]pyridin-2-yl)methyl]-3-(trifluoromethyl)-5,6,7,8-tetrahydro-1,7-naphthyridine] reads less than 1 nM.
The figure for `FC(F)(F)c1nnc(-c2cc3nc(CN4CCc5cc(C(F)(F)F)c(OCc6ccc(Cl)cn6)nc5C4)n(C[C@@H]4CCO4)c3cn2)[nH]1` [Compound 74, 2-[(5-chloropyridin-2-yl)methoxy]-7-[(3-{[(2S)-oxetan-2-yl]methyl}-6-[5-(trifluoromethyl)-4H-1,2,4-triazol-3-yl]-3H-imidazo[4,5-c]pyridin-2-yl)methyl]-3-(trifluoromethyl)-5,6,7,8-tetrahydro-1,7-naphthyridine] is less than 1 nM.
The result for `N#Cc1ccc(COc2nc3c(cc2C(F)(F)F)CCN(Cc2nc4cc(-c5nnc(C(F)(F)F)[nH]5)ncc4n2C[C@@H]2CCO2)C3)c(F)c1` [Compound 75, 3-fluoro-4-[({7-[(3-{[(2S)-oxetan-2-yl]methyl}-6-[5-(trifluoromethyl)-4H-1,2,4-triazol-3-yl]-3H-imidazo[4,5-c]pyridin-2-yl)methyl]-3-(trifluoromethyl)-5,6,7,8-tetrahydro-1,7-naphthyridin-2-yl}oxy)methyl]benzonitrile] reads less than 1 nM; that for `Fc1cc(Cl)ccc1COc1nc2c(cc1C(F)(F)F)CCN(Cc1nc3cc(-c4nnc(C(F)(F)F)[nH]4)ncc3n1C[C@H]1CCOC1)C2` [Compound 76, 2-[(4-chloro-2-fluorophenyl)methoxy]-7-[(3-{[(3R)-oxolan-3-yl]methyl}-6-[5-(trifluoromethyl)-4H-1,2,4-triazol-3-yl]-3H-imidazo[4,5-c]pyridin-2-yl)methyl]-3-(trifluoromethyl)-5,6,7,8-tetrahydro-1,7-naphthyridine], 1 to 300 nM; that for `Fc1cc(Cl)ccc1COc1nc2c(cc1C(F)(F)F)CCN(Cc1nc3cc(-c4nnc(C(F)(F)F)[nH]4)ncc3n1C[C@@H]1CCOC1)C2` [Compound 77, 2-[(4-chloro-2-fluorophenyl)methoxy]-7-[(3-{1[(3S)-oxolan-3-yl]methyl}-6-[5-(trifluoromethyl)-4H-1,2,4-triazol-3-yl]-3H-imidazo[4,5-c]pyridin-2-yl)methyl]-3-(trifluoromethyl)-5,6,7,8-tetrahydro-1,7-naphthyridine], 1 to 300 nM.
As to `Fc1cc(Cl)ccc1COc1nc2c(cc1C(F)(F)F)CCN(Cc1nc3cc(-c4nnc(C(F)(F)F)[nH]4)ncc3n1C[C@H]1CCCO1)C2` [Compound 78, 2-[(4-chloro-2-fluorophenyl)methoxy]-7-[(3-{1[(2R)-oxolan-2-yl]methyl}-6-[5-(trifluoromethyl)-4H-1,2,4-triazol-3-yl]-3H-imidazo[4,5-c]pyridin-2-yl)methyl]-3-(trifluoromethyl)-5,6,7,8-tetrahydro-1,7-naphthyridine], the EC50 was 1 to 300 nM.
